The values below are quoted from earlier work in US12031126B2, “Methods and compositions for simultaneous editing of both strands of a target double-stranded nucleotide sequence” (The Broad Institute, Inc., priority 2020, dated 2024).

Series [1] addresses FKBP12 (Homo sapiens, UniProt P62942). Particulars: cited from earlier work.
The target in series [2] is FKBP12 F36V (Homo sapiens, UniProt P62942, F37V). Particulars: cited from earlier work.
Sequence of FKBP12 F36V (P62942 whole entry F37V): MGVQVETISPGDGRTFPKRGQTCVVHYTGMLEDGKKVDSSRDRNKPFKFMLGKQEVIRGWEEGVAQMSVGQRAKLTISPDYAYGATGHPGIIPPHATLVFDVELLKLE

Sequence of FKBP12 (P62942 whole entry): as the sequence (P62942 whole entry F37V) above, with V37F counted along it

As to `CC[C@H](C(=O)N1CCCC[C@H]1C(=O)O[C@H](CCc1ccc(OC)c(OC)c1)c1cccc(OCC(=O)O)c1)c1cc(OC)c(OC)c(OC)c1` [AP1867], the Kd is 67 nM in series [1] and 0.094 nM in series [2].

The Kd is the equilibrium constant for the complex coming apart.
